pIC50: −log10 of the molar value. Marks after values point to notes of the source that are not given here.
How the values were obtained:
Rho kinase = target: T1, Rho kinase (Bos taurus, UniProt Q28021); assay: Ex vivo experiment: Rho kinase inhibition by serum of orally dosed SD rats; assay type: in vivo, rat; conditions: hydrochloride 30 mg/kg oral, SD rats (N=4), serum diluted 8 times
T1 construct: fused protein composed of bovine Rho kinase catalytic region and glutathione S-transferase; glutathione S-transferase (GST); made in house; host or cells: insect cells infected with baculovirus
Procedure: Water or a solution of a hydrochloride salt of a test compound (30 mg/kg) in physiological saline was orally administered to SD rats (N=4). […] The serum was diluted 8 times with physiological saline and was added to Rho kinase, substrate, and labeled ATP according to the method described in Pharmacological Test Example 1, and the amount of the phosphorylated substrate was determined. Rho kinase inhibition was calculated according to the following equation: Inhibition (%)=(1−amount of substrate in the case of test compound administration/amount of substrate in the case of water administration)×100

[1] = target: T2, Recombinant Rho kinase (fused protein composed of bovine Rho kinase catalytic region and glutathione S-transferase) (Bos taurus, UniProt Q28021); assay: Rho kinase inhibitory activity (phosphorylation of S6 231-239 substrate with γ32P-ATP); assay type: biochemical; conditions: concentration inhibiting substrate phosphorylation by 50%
T2 construct: fused protein composed of bovine Rho kinase catalytic region and glutathione S-transferase; glutathione S-transferase (GST); made in house; host or cells: insect cells infected with baculovirus
Procedure: This permits the substrate to be labeled with the radioisotope.
Thereafter, the substrate was adsorbed to a filter paper. ATP was washed away with a phosphoric acid solution, and the amount of the phosphorylated substrate was then measured with a liquid scintillation counter.

[2] = system: Mouse-derived CCR2 overexpressing human-derived histiocyte lymphoma (U937/CCR2); assay: Leukocyte migration inhibitory activity (MCP-1 induced migration, CHEMOTAXICELL); assay type: cell-based; conditions: U-937, test compound concentration 10 μg/ml, MCP-1 ligand, migration 1 hr
Procedure: Mouse-derived CCR2 overexpressing human-derived histiocyte lymphoma (U937/CCR2), was suspended in a 0.1% BSA-containing RPMI 1640 medium, to which a test compound had been added (5×10^6/ml), and the suspension was incubated for 20 min. A chemical solution (500 μl) (0.1% BSA-containing RPMI 1640 medium DMSO 1%), to which an MCP-1 ligand (1 μM) and the test compound had been added, was added to a 24-well plate. CHEMOTAXICELL was put thereon, and 200 μl of the cell suspension was added to the top layer, followed by migration under a 5% CO2 atmosphere at 37° C. for one hr. The number of cells, which had migrated to the lower chamber, was counted with a particle count analyzer (CDA-500, SYSMEX CORPORATION), and the percentage migration inhibition was calculated by the following equation: Migration inhibition (%)=(1−number of migrated cells in the presence of test compound/number of migrated cells in the absence of test compound)×100

[3] = system: Spontaneously hypertensive male rats (SHR); assay: Blood pressure depression activity in spontaneously hypertensive rats; assay type: in vivo, rat; conditions: hydrochloride 30 mg/kg oral; systolic pressure 3 to 4 hr after administration; ± standard error, four SHRs
Procedure: Spontaneously hypertensive male rats (SHR, Charles River Japan, Inc.) of 15 weeks old were provided. A solution of a hydrochloride of a compound of Example 45 or 46 (30 mg/kg) in purified water was orally administered to the rats. The systolic pressure of SHR was measured immediately before the administration of the test compound and 3 to 4 hr after the administration of the test compound. The percentage blood pressure depression was calculated by the following equation: Blood pressure depression (%)={(blood pressure before administration of test compound−blood pressure after administration of test compound)/blood pressure before administration of test compound}×100
The blood pressure depression was expressed in terms of the percentage blood pressure depression and the standard error for four SHRs.

[4] = system: anti-GBM nephritis model using WKY rats; assay: Proteinuria amelioration activity for anti-GBM nephritis model using WKY rats; assay type: in vivo, rat; conditions: mean ± standard error, 6 rats; for Number of cells (ED-1 positive cells per glomerulus): hydrochloride 30 mg/kg oral twice a day, kidney four days after antibody
Procedure: An anti-GBM antibody produced by immunizing domestic rabbits with a rat-derived GBM fraction was caudointravenously administered to WKY male rats of 8 weeks old to induce nephritis. For 3 days from the time 24 hr after the administration of the antibody, a solution of each of the hydrochlorides prepared in Examples 45 and 46 in purified water was orally administered at a dose of 30 mg/kg twice a day. Three days after the administration of the antibody, twenty-four-hours urine was collected to determine the protein level of urine.
Four days after the administration of the antibody, the rats were sacrificed by exsanguination, and the kidney was then harvested and was fixed in 4% paraformaldehyde to prepare a specimen for staining. Next, the specimen thus obtained was immunostained using a mouse-anti-rat macrophage monoclonal antibody (ED-1). The number of ED-1 positive cells per glomerulus was counted.
Likewise, an anti-GBM antibody was caudointravenously administered to WKY male rats of 7 weeks old to induce nephritis. For 4 weeks from the time 24 hr after the administration of the antibody, a solution of the hydrochloride prepared in each of Examples 45 and 46 in purified water was orally administered at a dose of 30 mg/kg twice a day. Four weeks after the administration of the antibody, twenty-four-hours urine was collected to determine the protein level of urine.

[5] = blood collection 4 hr after administration
[6] = hydrochloride 30 mg/kg oral twice a day for 4 weeks, 24-hr urine four weeks after antibody
[7] = hydrochloride 30 mg/kg oral twice a day for 3 days, 24-hr urine three days after antibody

T1 sequence (Q28021 6-553 limits assumed): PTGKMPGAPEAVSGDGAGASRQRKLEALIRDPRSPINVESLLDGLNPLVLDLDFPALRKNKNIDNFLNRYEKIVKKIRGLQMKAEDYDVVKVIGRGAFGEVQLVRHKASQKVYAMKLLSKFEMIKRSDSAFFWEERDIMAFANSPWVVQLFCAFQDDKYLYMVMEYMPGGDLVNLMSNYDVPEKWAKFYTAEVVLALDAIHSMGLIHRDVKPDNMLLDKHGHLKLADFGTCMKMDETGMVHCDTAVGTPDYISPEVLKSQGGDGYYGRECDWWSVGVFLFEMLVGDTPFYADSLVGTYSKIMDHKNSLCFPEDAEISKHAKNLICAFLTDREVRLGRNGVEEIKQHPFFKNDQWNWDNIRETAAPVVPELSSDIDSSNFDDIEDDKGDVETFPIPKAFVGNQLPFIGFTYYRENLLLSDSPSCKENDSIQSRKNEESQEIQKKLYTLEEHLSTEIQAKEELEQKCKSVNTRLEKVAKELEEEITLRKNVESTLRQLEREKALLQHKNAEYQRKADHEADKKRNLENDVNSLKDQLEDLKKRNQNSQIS
T2 sequence (Q28021 92-354 limits assumed): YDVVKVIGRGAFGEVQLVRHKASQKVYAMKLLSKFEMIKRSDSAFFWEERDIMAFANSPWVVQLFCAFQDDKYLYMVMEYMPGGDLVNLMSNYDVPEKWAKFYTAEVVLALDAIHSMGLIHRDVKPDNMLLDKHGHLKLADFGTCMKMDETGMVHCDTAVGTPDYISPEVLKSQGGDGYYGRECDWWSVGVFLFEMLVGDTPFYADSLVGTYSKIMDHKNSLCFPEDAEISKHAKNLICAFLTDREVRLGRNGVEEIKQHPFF

Structure (SMILES) | Inhibition (%) (Rho kinase; blood collected 3 hr after administration) | pIC50 [1] | inhibition at 10 µg/mL [2] | Inhibition (%) (Rho kinase; [5]) | Blood pressure depression (%) [3] | Protein level of urine [4, 6] | Protein level of urine [4, 7] | Number of cells (ED-1 positive cells per glomerulus) [4]
Nc1cccc(CN2CCC(Nc3cccc4cnccc34)C2)c1 (stereo not shown) [Example 17, N5-[1-(3-Aminobenzyl)tetrahydro-1H-3-pyrrolyl]-5-isoquinolylamine] | 57% | 6.55 | 94% | – | – | – | – | –
Clc1cccc(CN2CCCC(Nc3cccc4cnccc34)C2)c1 (stereo not shown) [Example 21, N5-[1-(3-Chlorobenzyl)-3-piperidyl]-5-isoquinolylamine] | – | 6.57 | 97% | – | – | – | – | –
Nc1cccc(CN2CC[C@H](Nc3cccc4cnccc34)C2)c1 [Example 45, (3S)-N5-[1-(3-Aminobenzyl)tetrahydro-1H-3-pyrrolyl]-5-isoquinolineamine] | – | 6.51 | 74% | 17* % | 10.2 ± 3.1% | 779.4 ± 133.9 mg/kg, body weight | 91.2 ± 21.5 mg/kg, body weight | 2.20 ± 0.65
Nc1cccc(CN2CC[C@@H](Nc3cccc4cnccc34)C2)c1 [Example 46, (3R)-N5-[1-(3-Aminobenzyl)tetrahydro-1H-3-pyrrolyl]-5-isoquinolineamine] | – | 7.64 | 104% | 42* % | 25.1 ± 4.4% | 327.6 ± 55.2 mg/kg, body weight | 73.6 ± 9.1 mg/kg, body weight | 1.38 ± 0.68
